ChEMBL document CHEMBL5303765, “Data for DCP probe BAY-7081” (2023)

Experiments:
[1] = molecular target: Serine/threonine-protein kinase 10 (Homo sapiens) (UniProt O94804); experiment: STK10 SGC Tm panel (DSF); conditions: for ΔTm: Compound concentration 10.0 uM
[2] = molecular target: T1, Serine/threonine-protein kinase 3 (Homo sapiens) (UniProt Q13188); experiment: STK3 SGC Tm panel (DSF); conditions: for ΔTm: Compound concentration 10.0 uM
T1 sequence (whole entry): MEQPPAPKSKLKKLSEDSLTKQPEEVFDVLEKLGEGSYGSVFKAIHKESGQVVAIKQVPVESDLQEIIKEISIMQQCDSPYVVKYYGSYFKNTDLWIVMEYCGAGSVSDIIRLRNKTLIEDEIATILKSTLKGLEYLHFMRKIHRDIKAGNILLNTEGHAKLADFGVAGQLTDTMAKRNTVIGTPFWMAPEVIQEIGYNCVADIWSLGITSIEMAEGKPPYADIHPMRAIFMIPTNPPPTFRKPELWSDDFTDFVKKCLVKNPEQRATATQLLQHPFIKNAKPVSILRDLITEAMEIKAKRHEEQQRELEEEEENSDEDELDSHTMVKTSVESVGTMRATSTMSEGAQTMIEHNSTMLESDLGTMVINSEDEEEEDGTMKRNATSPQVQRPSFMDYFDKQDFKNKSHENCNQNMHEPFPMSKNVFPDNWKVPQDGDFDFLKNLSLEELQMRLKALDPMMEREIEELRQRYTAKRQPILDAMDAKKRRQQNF

[3] = molecular target: Sigma intracellular receptor 2 (Homo sapiens) (UniProt Q5BJF2); conditions: Compound concentration 10.0 uM
[4] = molecular target: T2, Dual specificity mitogen-activated protein kinase kinase 6 (Homo sapiens) (UniProt P52564); experiment: MAP2K6 SGC Tm panel (DSF); conditions: for ΔTm: Compound concentration 10.0 uM
T2 sequence (whole entry): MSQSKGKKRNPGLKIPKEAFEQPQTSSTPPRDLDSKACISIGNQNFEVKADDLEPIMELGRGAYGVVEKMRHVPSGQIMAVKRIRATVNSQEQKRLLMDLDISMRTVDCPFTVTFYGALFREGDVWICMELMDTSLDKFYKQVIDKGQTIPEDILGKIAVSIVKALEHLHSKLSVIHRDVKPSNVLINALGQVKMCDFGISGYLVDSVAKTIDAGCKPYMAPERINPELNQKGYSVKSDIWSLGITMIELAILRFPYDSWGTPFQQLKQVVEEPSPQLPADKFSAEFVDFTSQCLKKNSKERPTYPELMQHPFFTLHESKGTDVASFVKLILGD

[5] = molecular target: T3, Aurora kinase A (Homo sapiens) (UniProt O14965); experiment: STK6 SGC Tm panel (DSF); conditions: for ΔTm: Compound concentration 10.0 uM
T3 sequence (whole entry): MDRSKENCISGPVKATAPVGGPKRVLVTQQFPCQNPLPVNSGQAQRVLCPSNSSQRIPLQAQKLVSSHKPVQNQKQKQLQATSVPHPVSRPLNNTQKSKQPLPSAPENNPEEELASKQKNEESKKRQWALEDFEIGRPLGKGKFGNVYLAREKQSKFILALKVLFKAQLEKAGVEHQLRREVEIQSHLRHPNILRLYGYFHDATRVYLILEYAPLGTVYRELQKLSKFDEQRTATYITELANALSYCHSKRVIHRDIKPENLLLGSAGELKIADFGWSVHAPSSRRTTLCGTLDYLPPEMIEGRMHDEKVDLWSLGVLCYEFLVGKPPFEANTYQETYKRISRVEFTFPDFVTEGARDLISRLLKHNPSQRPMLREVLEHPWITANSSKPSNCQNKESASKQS

[6] = molecular target: T4, Serine/threonine-protein kinase 17B (Homo sapiens) (UniProt O94768); experiment: STK17B SGC Tm panel (DSF); conditions: for ΔTm: Compound concentration 10.0 uM
T4 sequence (whole entry): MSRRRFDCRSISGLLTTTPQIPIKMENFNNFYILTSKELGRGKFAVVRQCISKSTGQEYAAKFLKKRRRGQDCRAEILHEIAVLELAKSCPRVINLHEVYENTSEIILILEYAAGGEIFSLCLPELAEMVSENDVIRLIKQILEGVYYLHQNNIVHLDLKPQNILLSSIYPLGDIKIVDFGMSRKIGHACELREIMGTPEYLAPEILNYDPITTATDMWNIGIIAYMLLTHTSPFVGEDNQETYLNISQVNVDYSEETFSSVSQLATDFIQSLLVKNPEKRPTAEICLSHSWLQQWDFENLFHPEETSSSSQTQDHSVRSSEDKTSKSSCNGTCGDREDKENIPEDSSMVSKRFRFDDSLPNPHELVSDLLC

[7] = molecular target: T5, 5-hydroxytryptamine receptor 1A (Homo sapiens) (UniProt P08908); conditions: Compound concentration 10.0 uM
T5 sequence (whole entry): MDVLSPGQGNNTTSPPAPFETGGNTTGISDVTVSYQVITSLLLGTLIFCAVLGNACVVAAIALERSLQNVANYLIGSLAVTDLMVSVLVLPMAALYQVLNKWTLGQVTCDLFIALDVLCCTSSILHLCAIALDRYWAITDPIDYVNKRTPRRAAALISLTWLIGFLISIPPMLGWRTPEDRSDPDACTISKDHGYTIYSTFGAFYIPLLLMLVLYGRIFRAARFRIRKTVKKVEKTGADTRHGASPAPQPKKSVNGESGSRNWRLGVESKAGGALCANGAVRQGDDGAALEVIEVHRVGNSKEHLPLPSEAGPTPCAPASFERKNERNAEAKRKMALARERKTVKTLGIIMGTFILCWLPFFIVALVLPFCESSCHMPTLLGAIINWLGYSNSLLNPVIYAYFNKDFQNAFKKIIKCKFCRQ

[8] = molecular target: Calcium/calmodulin-dependent protein kinase type 1G (Homo sapiens) (UniProt Q96NX5); experiment: CAMK1G SGC Tm panel (DSF); conditions: for ΔTm: Compound concentration 10.0 uM
[9] = molecular target: BMP-2-inducible protein kinase (Homo sapiens) (UniProt Q9NSY1); experiment: BMP2K SGC Tm panel (DSF); conditions: for ΔTm: Compound concentration 10.0 uM
[10] = molecular target: SRSF protein kinase 1 (Homo sapiens) (UniProt Q96SB4); experiment: SRPK1 SGC Tm panel (DSF); conditions: for ΔTm: Compound concentration 10.0 uM
[11] = molecular target: Casein kinase II subunit alpha (Homo sapiens) (UniProt P68400); experiment: CSNK2A1 SGC Tm panel (DSF); conditions: for ΔTm: Compound concentration 10.0 uM
[12] = molecular target: Maternal embryonic leucine zipper kinase (Homo sapiens) (UniProt Q14680); experiment: MELK SGC Tm panel (DSF); conditions: for ΔTm: Compound concentration 10.0 uM
[13] = molecular target: Histamine H4 receptor (Homo sapiens) (UniProt Q9H3N8); conditions: Compound concentration 10.0 uM
Sequence of Histamine H4 receptor (Homo sapiens) (Q9H3N8 whole entry): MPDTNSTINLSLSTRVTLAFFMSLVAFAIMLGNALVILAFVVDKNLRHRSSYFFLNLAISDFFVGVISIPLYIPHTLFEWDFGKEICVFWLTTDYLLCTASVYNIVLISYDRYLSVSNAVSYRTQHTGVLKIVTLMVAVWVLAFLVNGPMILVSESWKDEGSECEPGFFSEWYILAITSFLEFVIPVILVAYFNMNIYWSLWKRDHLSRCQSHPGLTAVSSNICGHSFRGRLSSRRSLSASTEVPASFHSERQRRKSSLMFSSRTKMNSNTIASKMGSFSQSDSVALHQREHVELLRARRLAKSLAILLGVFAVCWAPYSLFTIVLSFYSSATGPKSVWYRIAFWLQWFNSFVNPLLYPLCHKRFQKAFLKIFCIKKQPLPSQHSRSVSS

Sequence of Sigma intracellular receptor 2 (Homo sapiens) (Q5BJF2 whole entry): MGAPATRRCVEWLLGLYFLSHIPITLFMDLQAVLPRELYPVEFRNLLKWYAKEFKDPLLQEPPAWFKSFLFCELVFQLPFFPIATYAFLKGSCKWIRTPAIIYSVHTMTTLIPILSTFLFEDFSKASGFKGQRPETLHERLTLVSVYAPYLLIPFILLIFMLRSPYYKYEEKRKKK
Sequence of Casein kinase II subunit alpha (Homo sapiens) (P68400 whole entry, looked up): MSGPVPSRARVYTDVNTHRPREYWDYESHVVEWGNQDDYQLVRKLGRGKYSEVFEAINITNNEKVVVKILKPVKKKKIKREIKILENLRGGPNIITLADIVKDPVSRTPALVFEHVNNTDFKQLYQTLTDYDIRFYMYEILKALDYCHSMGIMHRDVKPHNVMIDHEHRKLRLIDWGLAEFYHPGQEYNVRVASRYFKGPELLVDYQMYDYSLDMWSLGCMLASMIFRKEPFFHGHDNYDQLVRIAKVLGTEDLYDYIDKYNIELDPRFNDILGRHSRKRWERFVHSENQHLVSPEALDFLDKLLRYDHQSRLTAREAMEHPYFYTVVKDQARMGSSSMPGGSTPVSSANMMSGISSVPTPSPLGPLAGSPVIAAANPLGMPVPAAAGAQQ
Sequence of BMP-2-inducible protein kinase (Homo sapiens) (Q9NSY1 whole entry, looked up): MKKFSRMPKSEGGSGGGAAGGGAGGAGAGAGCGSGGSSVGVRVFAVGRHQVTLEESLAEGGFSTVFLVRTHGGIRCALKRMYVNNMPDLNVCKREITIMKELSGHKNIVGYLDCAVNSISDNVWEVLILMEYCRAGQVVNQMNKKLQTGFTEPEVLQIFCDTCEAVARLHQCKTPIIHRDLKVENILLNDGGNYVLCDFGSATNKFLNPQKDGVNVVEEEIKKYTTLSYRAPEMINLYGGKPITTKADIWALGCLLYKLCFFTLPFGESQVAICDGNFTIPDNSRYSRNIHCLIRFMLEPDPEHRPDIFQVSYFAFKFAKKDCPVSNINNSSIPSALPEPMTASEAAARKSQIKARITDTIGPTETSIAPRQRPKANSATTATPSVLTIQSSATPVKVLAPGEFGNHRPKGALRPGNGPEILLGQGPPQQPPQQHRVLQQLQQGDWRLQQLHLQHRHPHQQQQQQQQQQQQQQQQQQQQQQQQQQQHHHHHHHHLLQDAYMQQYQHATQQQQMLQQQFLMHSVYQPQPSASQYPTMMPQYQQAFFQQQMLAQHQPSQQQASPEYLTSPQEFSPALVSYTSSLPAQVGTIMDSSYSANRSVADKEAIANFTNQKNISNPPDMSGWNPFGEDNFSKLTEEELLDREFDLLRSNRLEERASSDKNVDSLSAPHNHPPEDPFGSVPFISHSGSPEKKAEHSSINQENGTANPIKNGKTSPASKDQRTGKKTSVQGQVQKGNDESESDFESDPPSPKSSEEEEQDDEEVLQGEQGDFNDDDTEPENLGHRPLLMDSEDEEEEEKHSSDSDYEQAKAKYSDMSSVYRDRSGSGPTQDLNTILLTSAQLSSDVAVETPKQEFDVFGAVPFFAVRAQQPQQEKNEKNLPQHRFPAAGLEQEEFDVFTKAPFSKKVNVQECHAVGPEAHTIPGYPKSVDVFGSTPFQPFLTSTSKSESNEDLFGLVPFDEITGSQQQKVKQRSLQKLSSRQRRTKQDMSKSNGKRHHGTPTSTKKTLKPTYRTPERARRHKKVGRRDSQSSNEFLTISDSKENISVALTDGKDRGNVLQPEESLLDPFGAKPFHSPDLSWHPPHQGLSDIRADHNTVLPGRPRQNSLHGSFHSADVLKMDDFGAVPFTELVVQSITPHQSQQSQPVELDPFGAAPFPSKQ
Sequence of SRSF protein kinase 1 (Homo sapiens) (Q96SB4 whole entry): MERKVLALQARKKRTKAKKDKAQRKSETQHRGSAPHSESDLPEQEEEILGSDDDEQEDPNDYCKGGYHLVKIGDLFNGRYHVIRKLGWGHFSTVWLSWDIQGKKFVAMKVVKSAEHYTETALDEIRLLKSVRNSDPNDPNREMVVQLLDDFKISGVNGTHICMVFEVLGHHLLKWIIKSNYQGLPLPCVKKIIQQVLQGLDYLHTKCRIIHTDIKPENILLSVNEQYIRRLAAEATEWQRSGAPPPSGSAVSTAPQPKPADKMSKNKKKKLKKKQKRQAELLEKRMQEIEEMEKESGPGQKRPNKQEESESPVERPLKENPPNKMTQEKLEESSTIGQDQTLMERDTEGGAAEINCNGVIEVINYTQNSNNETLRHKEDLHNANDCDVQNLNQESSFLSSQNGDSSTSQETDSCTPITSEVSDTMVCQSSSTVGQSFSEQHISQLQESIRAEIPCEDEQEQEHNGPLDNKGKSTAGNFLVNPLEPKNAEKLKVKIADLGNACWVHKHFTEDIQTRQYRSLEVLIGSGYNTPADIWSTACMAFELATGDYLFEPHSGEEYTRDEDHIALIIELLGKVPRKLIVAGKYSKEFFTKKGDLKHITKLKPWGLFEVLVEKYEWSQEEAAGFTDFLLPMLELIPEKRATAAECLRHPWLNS
Sequence of Maternal embryonic leucine zipper kinase (Homo sapiens) (Q14680 whole entry, looked up): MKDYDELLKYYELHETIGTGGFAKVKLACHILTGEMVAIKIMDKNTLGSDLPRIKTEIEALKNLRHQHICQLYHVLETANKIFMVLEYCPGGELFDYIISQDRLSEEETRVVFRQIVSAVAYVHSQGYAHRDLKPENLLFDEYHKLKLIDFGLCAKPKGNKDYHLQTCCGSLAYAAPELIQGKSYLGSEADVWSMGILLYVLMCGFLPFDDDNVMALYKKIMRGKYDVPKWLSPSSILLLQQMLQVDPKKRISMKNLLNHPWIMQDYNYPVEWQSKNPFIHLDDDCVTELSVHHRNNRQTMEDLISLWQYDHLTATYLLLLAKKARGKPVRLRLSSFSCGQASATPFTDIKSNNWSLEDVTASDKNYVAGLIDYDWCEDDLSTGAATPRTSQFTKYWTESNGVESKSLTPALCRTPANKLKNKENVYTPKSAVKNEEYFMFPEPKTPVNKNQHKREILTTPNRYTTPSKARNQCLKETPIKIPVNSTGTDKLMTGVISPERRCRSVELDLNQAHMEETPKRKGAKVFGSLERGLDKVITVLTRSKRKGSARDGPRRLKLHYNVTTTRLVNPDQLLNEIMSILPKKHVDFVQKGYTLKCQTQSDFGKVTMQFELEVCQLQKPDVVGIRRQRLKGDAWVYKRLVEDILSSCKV
Sequence of Calcium/calmodulin-dependent protein kinase type 1G (Homo sapiens) (Q96NX5 whole entry): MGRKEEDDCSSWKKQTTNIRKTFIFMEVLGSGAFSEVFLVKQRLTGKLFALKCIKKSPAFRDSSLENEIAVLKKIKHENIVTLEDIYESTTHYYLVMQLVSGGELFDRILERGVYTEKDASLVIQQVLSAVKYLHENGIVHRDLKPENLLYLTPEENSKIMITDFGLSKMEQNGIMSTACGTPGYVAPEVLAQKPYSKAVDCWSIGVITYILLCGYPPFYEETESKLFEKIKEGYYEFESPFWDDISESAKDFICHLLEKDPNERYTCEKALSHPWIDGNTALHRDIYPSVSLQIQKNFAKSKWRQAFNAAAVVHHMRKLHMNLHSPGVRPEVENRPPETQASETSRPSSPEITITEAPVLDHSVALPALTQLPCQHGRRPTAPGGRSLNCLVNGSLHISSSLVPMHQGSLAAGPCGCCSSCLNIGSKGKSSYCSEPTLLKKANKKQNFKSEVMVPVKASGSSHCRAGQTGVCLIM
Sequence of Serine/threonine-protein kinase 10 (Homo sapiens) (O94804 whole entry, looked up): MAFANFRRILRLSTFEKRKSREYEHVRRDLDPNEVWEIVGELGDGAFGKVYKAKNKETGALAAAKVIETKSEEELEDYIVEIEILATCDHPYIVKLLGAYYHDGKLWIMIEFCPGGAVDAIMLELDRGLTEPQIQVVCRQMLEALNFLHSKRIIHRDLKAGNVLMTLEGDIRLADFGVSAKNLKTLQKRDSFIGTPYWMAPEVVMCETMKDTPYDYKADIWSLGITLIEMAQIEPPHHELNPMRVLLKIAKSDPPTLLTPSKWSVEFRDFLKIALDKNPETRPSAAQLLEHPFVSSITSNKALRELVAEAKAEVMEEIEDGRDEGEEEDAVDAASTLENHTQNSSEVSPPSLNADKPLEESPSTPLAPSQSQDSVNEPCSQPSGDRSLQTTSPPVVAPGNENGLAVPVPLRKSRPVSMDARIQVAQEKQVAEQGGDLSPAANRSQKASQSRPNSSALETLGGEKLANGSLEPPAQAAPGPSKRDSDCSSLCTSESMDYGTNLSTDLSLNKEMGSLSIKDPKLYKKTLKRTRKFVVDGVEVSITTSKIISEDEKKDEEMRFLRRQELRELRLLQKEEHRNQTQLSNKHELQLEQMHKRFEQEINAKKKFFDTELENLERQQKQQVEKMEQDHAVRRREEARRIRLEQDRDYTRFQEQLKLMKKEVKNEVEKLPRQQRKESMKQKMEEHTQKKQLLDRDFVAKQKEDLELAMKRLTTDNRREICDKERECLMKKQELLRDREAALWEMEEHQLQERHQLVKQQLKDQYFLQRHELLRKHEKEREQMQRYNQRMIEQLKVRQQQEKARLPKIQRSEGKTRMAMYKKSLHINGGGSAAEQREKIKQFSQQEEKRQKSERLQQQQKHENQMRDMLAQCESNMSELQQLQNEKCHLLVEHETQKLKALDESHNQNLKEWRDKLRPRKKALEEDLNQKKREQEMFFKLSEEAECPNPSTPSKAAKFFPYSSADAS

| Structure (SMILES) | delta Tm Staurosporine positive control [1] | ΔTm [1] | delta Tm Staurosporine positive control [2] | ΔTm [2] | inhibition [3] [%] | delta Tm Staurosporine positive control [4] | ΔTm [4] | delta Tm Staurosporine positive control [5] | ΔTm [5] | delta Tm Staurosporine positive control [6] | ΔTm [6] | inhibition [7] [%] | delta Tm Staurosporine positive control [8] | ΔTm [8] | delta Tm Staurosporine positive control [9] | ΔTm [9] | delta Tm Staurosporine positive control [10] | ΔTm [10] | delta Tm Staurosporine positive control [11] | ΔTm [11] | other results |
| --- | --- | --- | --- | --- | --- | --- | --- | --- | --- | --- | --- | --- | --- | --- | --- | --- | --- | --- | --- | --- | --- |
| CCC[C@@H]1CNCc2c1[nH]c(=O)c(C#N)c2N1CCC2(CC1)CC2 | 22.2 | -2.3 | 16.5 | -0.767 | -4.19 | 12.8 | -0.119 | 20.5 | -0.0175 | 10.6 | -0.79 | 8.63 | 11.2 | -0.416 | 18.7 | -0.192 | 7.17 | -0.188 | 4.47 | -0.184 | delta Tm Staurosporine positive control [12]: 14.2; ΔTm [12]: 0.193; inhibition [13]: -8.1% |
| CCC[C@H]1CNCc2c1[nH]c(=O)c(C#N)c2N1CCC2(CC1)CC2 | 22.2 | -2.2 | 16.5 | -0.737 | -5 | 12.8 | -0.0944 | 20.5 | 0.00646 | 10.6 | -0.858 | 5.13 | 11.2 | -0.348 | 18.7 | -0.103 | 7.17 | -0.269 | 4.47 | -0.228 | delta Tm Staurosporine positive control [12]: 14.2; ΔTm [12]: -0.201; inhibition [13]: 14.2% |
